Results taken from patent US20110003898A1, “MEDICAL GLUES FOR SURGERY COMPRISING BIOACTIVE COMPOUNDS” (Bayer MaterialScience AG, priority 2008, published 2011).

Tests used:
Assay type in all cases: physicochemical
[1] = Film formation on the skin, cure time to disappearance of surface tackiness; settings: adhesive with 2-5% active ingredient; ^2 = suspension
Text: (§1) 0.45 g of PEG 200 were mixed thoroughly with 0.55 g of aspartate B and 2-5% of the active ingredient. The solution was stirred with 4 g of prepolymer A and applied to the tissue. We tested for processing time and the effect of adhesion to meat as well as the formation of a film on the skin.

[2] = Active substance release from adhesive film into physiological saline (HPLC-UV/MS); settings: 37° C., 2 h; for Release: 5x5 cm section (0.5 g) in 20 g physiological saline; for Amount of active substance released [%]: physiological saline
Procedure: For the quantitative determination of the active substance release, a transparent film with a thickness of 200 ? was produced by knife coating from 4 g of prepolymer A, 0.45 g of PEG 200, […] A section measuring 5×5 cm (weight: 0.5 g) was cut from this film, placed in a petri dish, covered with 20 g of physiological saline solution, and stored in an incubator at 37° C. for 2 h. The quantitative determination was carried out via HPLC-UV/MS (HPLC column: Inertsil ODS 3 5 □ 120 A 125 mm*2.1 mm 60° C.; eluent A: 25 mmol ammonium acetate in water, eluent B: 25 mmol ammonium acetate in methanol).

[3] = Pot life (processing time) of adhesive with active ingredient; settings: 0.45 g PEG 200, 0.55 g aspartate B, 2-5% active ingredient, 4 g prepolymer A; ^2 = active substance in suspension
Text: as §1

[4] = 250 mg active substance in film
[5] = 100 mg active substance in film

Compound | Film formation cure time [min to disappearance of surface tackiness] [1] [min] | further results
CC(=O)Oc1ccccc1C(=O)O [acetylsalicylic acid] | 4 | Release [2, 4]: 320 mg/L; Amount of active substance released [%] [2, 4]: 25.6%
Oc1cc(Cl)ccc1Oc1ccc(Cl)cc1Cl [triclosan (Irgasan), 2,4,4′-trichloro-2′-hydroxydiphenyl ether] | 5 | –
Cc1ncc([N+](=O)[O-])n1CCO [metronidazole] | 5 | Pot life [3]: 2 min
CC(=O)Nc1ccc(O)cc1 [paracetamol] | 7 | Release [2, 5]: 136 mg/L; Amount of active substance released [%] [2, 5]: 27.2%
COc1ccc2c(c1)c(CC(=O)OCC(=O)O)c(C)n2C(=O)c1ccc(Cl)cc1 [acemetacine] | 7 | –
Cc1ccc(C(C)C)c(O)c1 [thymol] | 5 | –
COc1cccc(C2(O)CCCCC2CN(C)C)c1 (stereo not shown) [tramadol] | 4 | –
CC(=O)NS(=O)(=O)c1ccc(N)cc1 [sulfacetamide] | 5 | –
CCCCNc1ccc(C(=O)OCCN(C)C)cc1 [tetracaine] | 7 | –
CCN1CCN(c2cc3c(cc2F)c(=O)c(C(=O)O)cn3C2CC2)CC1 [enrofloxazine] | 4 | Pot life [3]: 1 min
C[C@]12CCC(=O)C=C1CC[C@@H]1[C@@H]2C(=O)C[C@@]2(C)[C@H]1CC[C@]2(O)C(=O)CO [cortisone] | 5 | Release [2, 5]: 230 mg/L; Amount of active substance released [%] [2, 5]: 46%
[H]/N=C(\N/C(=N/[H])NCCCCCCNC(=N)NC(=N)Nc1ccc(Cl)cc1)Nc1ccc(Cl)cc1 [chlorhexidine] | 3 | Pot life [3]: 0.5 min
CCCCN1CCCCC1C(=O)Nc1c(C)cccc1C (stereo not shown) [bupivacaine] | 6 | –
O=C1OC(CN2CCOCC2)CN1/N=C/c1ccc([N+](=O)[O-])o1 (stereo not shown) [furaldatone] | 4 | –
CC(C)Cc1ccc(C(C)C(=O)O)cc1 (stereo not shown) [ibuprofen] | 6 | –
CCOC(=O)c1ccc(N)cc1 [benzocaine] | 6 | –
OC(Cn1cncn1)(Cn1cncn1)c1ccc(F)cc1F [fluconazole] | 15 | Pot life [3]: 3 min
CC[C@H]1OC(=O)[C@H](C)[C@@H](O[C@H]2C[C@@](C)(OC)[C@@H](O)[C@H](C)O2)[C@H](C)[C@@H](O[C@@H]2O[C@H](C)C[C@H](N(C)C)[C@H]2O)[C@](C)(O)C[C@@H](C)C(=O)[C@H](C)[C@@H](O)[C@]1(C)O [erythromycin] | 6 | –
CCN(CC)CC(=O)Nc1c(C)cccc1C [lidocaine] | 4 | Release [2, 4]: 570 mg/L; Amount of active substance released [%] [2, 4]: 45.6%
O=C(N[C@H](CO)[C@H](O)c1ccc([N+](=O)[O-])cc1)C(Cl)Cl [chloramphenicol] | 5 | Release [2, 4]: 646 mg/L; Amount of active substance released [%] [2, 4]: 51.7%
CCn1cc(C(=O)O)c(=O)c2ccc(C)nc21 [nalidixic acid] | 5 | Release [2, 5]: 110 mg/L; Amount of active substance released [%] [2, 5]: 22%
